“Also recorded” adds a separate entry of the source. Like-named read-outs stand apart in the source and are kept apart here.
Tests used:
[1] = tested on: outer hair cell (OHC) function; format: in vivo, mice
Protocol: FIG. 12A-12E. HNK protection against cisplatin-induced changes of DPOAE amplitude. […] The DPOAE shift, normalized to Day 0, of all the groups are plotted in (FIG. 12B to FIG. 12E). […] The results of the 2 animals in Cis 15 mg/kg group on Day 14 were both plotted in (FIG. 12B) as the dashed lines and open circles. […].
Distortion product oto-acoustic emissions (DPOAEs), which are an indication of outer hair cell (OHC) function, were measured in a separate series of experiments to estimate OHC protection by honokiol (HNK). (See FIG. 12A-12E). […] (See FIGS. 12D and 12E). After pre-treatment with HNK at a dosage of 10 mg/kg, the DPOAE shift was observed only at frequencies of 27 kHz and higher with a much smaller amplitude. (See FIG. 12D).

colon cancer cells = assay: Survival of colon cancer cells with cisplatin and honokiol; format: cell-based
Protocol: (§1) FIG. 10. […] C: cisplatin; H: honokiol. […] Each treatment was repeated in triplets. The data were normalized by the number of untreated control (C0H0).
(§2) Because the role of SIRT3 may be different in different cancers, we selected three (3) different cancer cells for testing: prostate cancer cells, cervical cancer cells, and colon cancer cells. (See FIG. 10). Cisplatin was administered to the cancer cell lines with honokiol.

[2] = tested on: prostate cancer cells (C4-2B); assay: Survival of prostate cancer cells with cisplatin and honokiol; format: cell-based
Protocol: as §1, §2

outer hair cells (OHC) = assay: Immunofluorescent histochemistry and confocal imaging of cochlear whole mount; format: in vivo, mice
Text: FIG. 13. Confocal images of the immunostaining (merged) of cochleae treated with Cis 15 (A) and Cis 15+HNK 20 (B) mg/kg, under 20× objectives.
FIG. 14. High-resolution confocal images (60× […]) of cochleae treated with Cis 15 (Left) and Cis 15+HNK 20 (Right), taken at the locations marked by white squares in FIGS. 13A and B, respectively. The white arrows indicate the nuclei of the remaining OHCs and the hollow arrows indicate missing OHCs. Note the panels for hair bundles (phalloidin staining) might be off focus and are only for indicating the correct position of the bodies and nuclei of the OHCs.
Immunofluorescent histochemistry (IFHC) of a cochlear whole mount was performed after the physiological studies described above using prestin antibody (for outer hair cells (OHC)), phalloidin (for hair bundle) and 4′,6-diamidino-2-phenylindole (DAPI) (for nuclei). […] (See FIG. 14A). HC loss can be indicated by the scarcity of remaining nuclei (white arrows).

[3] = Weight loss and animal survival in cisplatin-treated mice; format: in vivo
Text: (See FIG. 15). […] (See FIG. 15). […] (See FIG. 15A). […] (See FIG. 15B).

cervical cancer cells = assay: Survival of cervical cancer cells with cisplatin and honokiol; format: cell-based
Protocol: as §1, §2

HEI-OC1 cells = tested on: HEI-OC1 cells
Text: FIG. 9. […] The data were normalized to the number of cells in the negative control (C0H0).
(§3) (See FIG. 9). […] (See FIG. 9). […] (See FIG. 9).

mice = assay: Auditory Brainstem Response (ABR) threshold shift in cisplatin-treated mice; format: in vivo
Text: Average=256. The error bars of all data points are standard deviations.

[4] = tested on: SIRT3, Caspase 3, PARP in HEI-OC1 cells; assay: Western blot of SIRT3 and apoptosis-related proteins in HEI-OC1 cells; format: cell-based, mouse
Protocol: FIG. 9. […] (A) C: cisplatin; H: HNK. […] Cisplatin and honokiol were added simultaneously.
as §3

[5] = literature statement, cited from earlier work
[6] = honokiol co-administered with cisplatin
[7] = cisplatin with honokiol pre-treatment

N.N.[Cl][Pt][Cl] [cisplatin, reference compound]
DPOAE amplitude at high frequencies ([1]; mouse, in vivo): reduced | frequencies of apparent DPOAE amplitude drop ([1]; mouse, in vivo): over 16 kHz | loss of colon cancer cells (colon cancer cells; cisplatin 100 μM): massive loss | loss of prostate cancer cells ([2]; cisplatin 50 μM or 100 μM): massive loss | OHC organization and HC loss (outer hair cells (OHC); Cis 15 mg/kg, basal 1/3 of the cochlea (estimated over 22 kHz)): Significant disruption of OHC organization and HC loss | survival rate ([3]; cisplatin 20 mg/kg, day 8): zero | reduction in cervical cancer cells (cervical cancer cells; cisplatin 50 μM or 100 μM): mild reduction

C=CCc1ccc(O)c(-c2ccc(O)c(CC=C)c2)c1 [honokiol, 2-(4-hydroxy-3-prop-2-enyl-phenyl)-4-prop-2-enyl-phenol]
cell toxicity (HEI-OC1 cells): no cell toxicity | HEI-OC1 apoptosis induced by cisplatin (HEI-OC1 cells; 10 μM HNK, 50 μM cisplatin, 24 hours, preliminary study): completely prevent | protection against high dose cisplatin ototoxicity (HEI-OC1 cells; HNK 10 μM, cisplatin 50 μM): ~100% | protection of HEI-OC1 cells against cisplatin-induced cell loss (HEI-OC1 cells; honokiol 5 μM or 10 μM, cisplatin 50 μM or 100 μM): protect | TS in tonal ABR at the highest frequency (32 kHz) (mice; HNK 10 mg/kg and cisplatin 15 mg/kg): significant TS | TS at other frequencies and dose combinations (mice; HNK 10-20 mg/kg, cisplatin 15-20 mg/kg): No further significant TS | ABR TS induced by cisplatin (mice; mice pre-treated with HNK): decreased significantly | DPOAE amplitude changes ([1]; mice pre-treated with HNK, cisplatin 15 mg/kg): less pronounced | SIRT3 expression level ([4]; HEI-OC1, HNK with cisplatin, 24 hours after cisplatin treatment, listed as HNK): increased; also recorded: elevated | DNA damage ([4]; HEI-OC1, cisplatin in the presence of HNK, pilot studies): diminished | cleavage of poly ADP ribose polymerase (PARP) ([4]; HEI-OC1, honokiol): decrease | expression of Caspase 3 ([4]; HEI-OC1, honokiol): decrease | expression of SIRT3 ([4]; HEI-OC1, increasing concentrations of honokiol): increase | expression of early apoptosis mark caspase-3 ([4]; HEI-OC1 co-treated with HNK and cisplatin versus cisplatin alone, pilot studies): higher in some cells | effect with cisplatin on colon cancer cells (colon cancer cells; honokiol 10 μM or 25 μM, cisplatin 50 μM): synergistic effect | protection of colon cancer cells from the toxicity of cisplatin (colon cancer cells; [6]): not observed to protect | prostate cancer cell (C4-2B) death from cisplatin treatment ([2]; HNK up to 25 μM, 50 μM cisplatin, preliminary data): did not prevent | protection of prostate cancer cells from the toxicity of cisplatin [2, 6]: not observed to protect | OHC structure (outer hair cells (OHC); Cis 15 + HNK 20 mg/kg, up to the 40 kHz region, only sporadic loss of HCs): nearly intact OHC structure | maximum weight loss ([3]; cisplatin 15 mg/kg with honokiol): about 15% | animals lost ([3]; cisplatin 20 mg/kg with honokiol): 20% | survival rate / animal loss [3, 7]: significantly reduced; also recorded: improved significantly | weight loss [3, 7]: significantly reduced; also recorded: largely improved | effect with cisplatin on cervical cancer cells (cervical cancer cells; honokiol 25 μM, cisplatin 50 μM (C50H25)): synergistic effect | protection of cervical cancer cells from the toxicity of cisplatin (cervical cancer cells; [6]): not observed to protect | passage of the blood-brain barrier [5]: capable of passing the blood-brain barrier | passage of the blood-brain barrier ([5]; listed as HNK): can also cross the blood brain barrier; also recorded: permeable; also recorded: can pass through the blood-brain barrier

Reference: patent US20240350536A1, “Application of Bi-Phenols in Anti-ototoxicity and Hearing Protection” (Northwestern University, priority 2017, published 2024)
